The experiment has as its system mixture of bacterial species: Pseudomonas aeruginosa, Pseudomonas fluorescens, Pseudomonas oleovorans, Pseudomonas rubescens, Pseudomonas stutzeri, Alcaligenes …. Nature of the experiment: Microbiological stress test (preservation stress test) in calcium carbonate slurry. It counts as cell-based. As to conditions: calcium carbonate slurry (solids 70-75%), 3 days 60° C. pre-stress, weekly contamination. As for the experimental part:
Microbiological Stress Test The microbiological stress test examines the susceptibility of water-based systems to microbial attack and the efficacy of preservatives. To this end, defined concentrations of the preservatives are incorporated into the water-based systems. To simulate reality-like conditions, depending on the medium to be examined, the sample may be stored at elevated temperatures (for example for 7 days at 40° C., for 3 days at 60° C. or the like) prior to carrying out the actual preservation test, in order to evaluate the preservatives to be tested under conditions which are as realistic as possible. After the preliminary work has been concluded, there is, at weekly intervals, a contamination with microorganisms of a defined type over a test period of at most 6 weeks. 2-3 and 7 days after each contamination it is established by germ number determination, whether there has been a complete kill or at least an inhibition of proliferation of the microorganisms introduced, compared to the non-preserved control samples. On account of the microorganism populations known to predominate in mineral suspensions and dispersions, for the experiment, a mixture of the following bacterial species was used for the test: Pseudomonas aeruginosa Pseudomonas fluorescens Pseudomonas oleovorans Pseudomonas rubescens Pseudomonas stutzeri Alcaligenes faecalis Citrobacter freundii Corynebacterium sp. Very good efficacy is achieved when the preserved samples effect a kill of the microorganisms introduced even after 6 contamination cycles. […] Using a calcium carbonate slurry (solids content 70-75%), a preservation stress test was carried out in accordance with the above scheme. After incorporation of the respective biocide products at the stated concentrations, the samples were exposed to thermal stress at 60° C. for 3 days in order to identify unstable active compound components in the biocide products even at this phase of the experiment by subsequent loss of activity.

As for `O=c1[nH]sc2ccccc12` [benzisothiazolinone, 1,2-benzisothiazolin-3-one], for the setting “100 ppm”, the “Preservation state Week 1” value is on record as “ok”, the “Preservation state Week 2” value is recorded as “spoilt”, the “Preservation state Week 3” value is listed as “spoilt” and the “Preservation state Week 4” value is listed as “spoilt”. Further, for the setting “100 ppm”, the “Preservation state Week 5” value is on record as “spoilt” and the “Preservation state Week 6” value is listed as “spoilt”. Further, where the note is “150 ppm”, the “Preservation state Week 1” value was “ok”, the “Preservation state Week 2” value is recorded as “ok”, the “Preservation state Week 3” value was “spoilt” and the “Preservation state Week 4” value is listed as “spoilt”. Moreover, for the setting “150 ppm”, the “Preservation state Week 5” value is “spoilt” and the “Preservation state Week 6” value is given as “spoilt”. Also, where the note is “200 ppm”, the “Preservation state Week 1” value is listed as “ok”, the “Preservation state Week 2” value is on record as “ok”, the “Preservation state Week 3” value was “ok” and the “Preservation state Week 4” value is given as “spoilt”. Further, for the setting “200 ppm”, the “Preservation state Week 5” value was “spoilt” and the “Preservation state Week 6” value is listed as “spoilt”.
